Reference: US20240025924A1, “HETEROCYCLE SUBSTITUTED KETONE DERIVATIVE, AND COMPOSITION AND MEDICINAL USE THEREOF” (SHANGHAI HAIYAN PHARMACEUTICAL TECHNOLOGY CO., LTD., priority 2021, published 2024)

Legend:
MV-4-11 cell = experiment: Cell proliferation assay (Cell Titer-Glo); format: cell-based; details: Homo sapiens, MV4-11, 96 h, inhibition of MV-4-11 cell proliferation; Cell Titer-Glo on day 4
Description: MV 411 cells (20000 cells/well) were inoculated and cultured in 96 (Corning #3916) well plates, and the medium was 80 μL/well (IMDM with 10% fetal bovine serum (FBS), Gibco #10099-141C). After 24 hours of incubation, 20 μL of the compounds of the present invention configured to different concentrations (DMSO final concentration of 0.1% (V/V)) were added. On day 4, 60 μL of Cell Titer-Glo (Promega #G7558) was added to each well and mixed at 80 rpm, 25° C., 15 min, and the fluorescence values were detected by Victor X5 (PE).

SHP-2 enzyme = biological target: T1, SHP-2 enzyme (Homo sapiens, UniProt Q06124); experiment: Phosphatase activity assay (Homogeneous Full Length SHP-2 Assay Kit, DiFMUP substrate); format: biochemical; details: full length SHP-2 activated with 0.5 μM SHP-2 activating Peptide; 1 hour co-incubation; DiFMUP 50 μM, 30 min
T1 construct: Homogeneous Full Length SHP-2 Assay Kit (BPS Bioscience #79330); purchased BPS Bioscience 79330
T1 sequence (Q06124 1-593): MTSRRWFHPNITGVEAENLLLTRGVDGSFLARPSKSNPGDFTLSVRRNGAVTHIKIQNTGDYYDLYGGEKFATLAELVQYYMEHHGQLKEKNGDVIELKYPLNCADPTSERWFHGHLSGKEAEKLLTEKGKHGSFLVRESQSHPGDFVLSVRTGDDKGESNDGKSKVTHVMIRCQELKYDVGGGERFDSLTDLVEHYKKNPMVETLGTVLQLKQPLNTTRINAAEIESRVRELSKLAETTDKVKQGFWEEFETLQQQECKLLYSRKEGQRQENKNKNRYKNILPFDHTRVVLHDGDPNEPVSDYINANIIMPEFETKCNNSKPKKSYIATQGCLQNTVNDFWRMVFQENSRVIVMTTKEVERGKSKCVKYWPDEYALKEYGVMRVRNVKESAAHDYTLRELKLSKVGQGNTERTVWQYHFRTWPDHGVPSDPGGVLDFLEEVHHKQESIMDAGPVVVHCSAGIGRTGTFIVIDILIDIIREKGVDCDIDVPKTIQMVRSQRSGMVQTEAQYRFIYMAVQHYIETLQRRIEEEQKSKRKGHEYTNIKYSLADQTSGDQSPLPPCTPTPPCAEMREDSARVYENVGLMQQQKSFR
Description: IC50 values were assayed using Homogeneous Full Length SHP-2 Assay Kit (BPS Bioscience #79330), which uses 6,8-difluoro-4-methylumbelliferone phosphate (DiFMUP) as the reaction substrate. SHP2 enzyme solution (diluted to 0.04 ng/μL with 1*buffer) was mixed with 0.5 μM SHP-2 activating Peptide in a 1*buffer solution containing 2.5 mM DTT to activate PTP. At the same time, DMSO (0.1% (V/V)) or the compounds (concentration: 0.5 nM to 1 μM) were added, mixed and co-incubated for 1 hour. DiFMUP (50 μM, total reaction system volume of 20 μL) was added, and the reaction was started. After 30 min of incubation, the fluorescence intensity of the reaction system (excitation wavelength: 350 nm, emission wavelength: 460 nm) was measured by Tecan Infinite M1000.

Row | SMILES | IC50 (MV-4-11 cell) | IC50 (SHP-2 enzyme)
1 | Nc1nc(N2CCC3(CC2)Cc2ccccc2C3N)cnc1C(=O)N1CCc2nc(Cl)ccc21 (stereo not drawn) [Compound 52] | 196 nM | 4 nM
2 | Nc1nc(N2CCC3(CC2)Cc2cc(Cl)ccc2C3N)cnc1C(=O)N1CCc2ncccc21 (stereo not drawn) [Compound 53] | 192 nM | 4 nM
3 | CC1(C)CN(C(=O)c2ncc(N3CCC4(CC3)Cc3ccccc3C4N)nc2N)Cc2scnc21 (stereo not drawn) [Compound 54] | 206 nM | 8 nM
4 | CC1(C)CN(C(=O)c2ncc(N3CCC4(CC3)Cc3ccccc3C4N)nc2N)Cc2sc(N)nc21 (stereo not drawn) [Compound 61] | 71 nM | 7 nM
5 | COc1ccc2c(c1)C(N)C1(CCN(c3cnc(C(=O)N4CCc5nc(N)ccc54)c(N)n3)CC1)C2 (stereo not drawn) [Compound 62] | 156 nM | 5 nM
6 | Cc1ccc2c(c1)C(N)C1(CCN(c3cnc(C(=O)N4CCc5nc(N)ccc54)c(N)n3)CC1)C2 (stereo not drawn) [Compound 64] | 70 nM | 5 nM
7 | Cc1nc(C(=O)N2Cc3sc(N)nc3C(F)(F)C2)c(N)nc1N1CCC2(CC1)Cc1ccccc1C2N (stereo not drawn) [Compound 65] | 5 nM | 4 nM
8 | Nc1ccc2c(n1)CCN2C(=O)c1ncc(N2CCC3(CC2)Cc2ccc(CO)cc2C3N)nc1N (stereo not drawn) [Compound 66] | 196 nM | 9 nM
9 | Nc1nc(N2CCC3(CC2)Cc2ccccc2C3N)cnc1C(=O)N1CCCc2n[nH]cc21 (stereo not drawn) [Compound 67] | 79 nM | 7 nM
10 | Nc1ccc2c(n1)CCN2C(=O)c1cnc(N2CCC3(CC2)Cc2ccccc2C3N)c(CO)n1 (stereo not drawn) [Compound 68] | 125 nM | 7 nM
11 | Nc1nc2c(s1)CN(C(=O)c1ncc(N3CCC4(CC3)Cc3ccccc3C4N)nc1N)CC2 (stereo not drawn) [Compound 75] | 9 nM | 5 nM
12 | COc1ccc2c(c1)CC1(CCN(c3cnc(C(=O)N4CCCn5nccc54)c(N)n3)CC1)C2N (stereo not drawn) [Compound 76] | 191 nM | 10 nM
13 | Nc1nc(N2CCC3(CC2)Cc2c(F)cccc2C3N)nnc1C(=O)N1CCCn2nccc21 (stereo not drawn) [Compound 77] | 150 nM | 11 nM
14 | Nc1nc(N2CCC3(CC2)Cc2c(F)cccc2C3N)c(F)nc1C(=O)N1CCCn2nccc21 (stereo not drawn) [Compound 78] | 218 nM | 10 nM
15 | Nc1nc(N2CCC3(CC2)Cc2ccncc2C3N)cnc1C(=O)N1CCCn2nccc21 (stereo not drawn) [Compound 79] | 257 nM | 14 nM
16 | Nc1nc(N2CCC3(CC2)Cc2ccccc2C3N)cnc1C(=O)N1CCc2nc(F)ccc21 (stereo not drawn) [Compound 80] | 127 nM | 4 nM
17 | Nc1nc(N2CCC3(CC2)Cc2cc(F)ccc2C3N)cnc1C(=O)N1CCc2nc(F)ccc21 (stereo not drawn) [Compound 81] | 128 nM | 4 nM
18 | Nc1nc2c(s1)CN(C(=O)c1nc(Cl)c(N3CCC4(CC3)Cc3ccccc3C4N)nc1N)CC2 (stereo not drawn) [Compound 83] | 17 nM | 4 nM
19 | Cc1nc(C(=O)N2CCc3nc(N)sc3C2)c(N)nc1N1CCC2(CC1)Cc1ccccc1C2N (stereo not drawn) [Compound 85] | 12 nM | 4 nM
20 | Nc1nc(N2CCC3(CC2)Cc2ncsc2C3N)cnc1C(=O)N1CCCn2nccc21 (stereo not drawn) [Compound 86] | 286 nM | 8 nM
21 | CC1(C)CCN(C(=O)c2ncc(N3CCC4(CC3)Cc3ccccc3C4N)nc2N)c2ccnn21 (stereo not drawn) [Compound 87] | 159 nM | 9 nM
22 | CC1CN(C(=O)c2ncc(N3CCC4(CC3)Cc3cc(F)ccc3C4N)nc2N)c2ccc(N)nc21 (stereo not drawn) [Compound 88] | 235 nM | 5 nM
23 | CC1CN(C(=O)c2ncc(N3CCC4(CC3)Cc3ccccc3C4N)nc2N)c2ccc(N)nc21 (stereo not drawn) [Compound 89] | 127 nM | 4 nM

Row | SMILES | IC50 (MV-4-11 cell) | IC50 (SHP-2 enzyme)
24 | Nc1ccc2c(n1)CCN2C(=O)c1ncc(N2CCC3(CC2)Cc2ccc(Cl)cc2C3N)nc1N (stereo not drawn) [Compound 91] | 61 nM | 3 nM
25 | CNc1ccc2c(n1)CCN2C(=O)c1ncc(N2CCC3(CC2)Cc2ccccc2C3N)nc1N (stereo not drawn) [Compound 92] | 119 nM | 4 nM
26 | COc1ccc2c(c1)C(N)C1(CCN(c3cnc(C(=O)N4Cc5sc(N)nc5C(C)(C)C4)c(N)n3)CC1)C2 (stereo not drawn) [Compound 93] | 114 nM | 8 nM
27 | CC1(C)CN(C(=O)c2ncc(N3CCC4(CC3)Cc3ccc(F)cc3C4N)nc2N)Cc2sc(N)nc21 (stereo not drawn) [Compound 94] | 110 nM | 7 nM
28 | Nc1ccc2c(n1)CCN2C(=O)c1ncc(N2CCC3(CC2)Cc2ccc(F)cc2C3N)nc1N (stereo not drawn) [Compound 95] | 176 nM | 3 nM
29 | Nc1ccc2c(c1)CCN2C(=O)c1ncc(N2CCC3(CC2)Cc2ccccc2C3N)nc1N (stereo not drawn) [Compound 96] | 157 nM | 4 nM
30 | Cc1cc2c(cc1C)C(N)C1(CCN(c3cnc(C(=O)N4CCc5nc(N)sc5C4)c(N)n3)CC1)C2 (stereo not drawn) [Compound 99] | 46 nM | 10 nM
31 | Cc1nc(C(=O)N2CCc3nc(N)ccc32)c(N)nc1N1CCC2(CC1)Cc1ccccc1C2N (stereo not drawn) [Compound 100] | 51 nM | 7 nM
32 | Cc1nc(C(=O)N2Cc3sc(N)nc3C(C)(C)C2)c(N)nc1N1CCC2(CC1)Cc1ccccc1C2N (stereo not drawn) [Compound 101] | 85 nM | 18 nM
33 | Cc1ccc2c(c1)C(N)C1(CCN(c3cnc(C(=O)N4Cc5sc(N)nc5C(C)(C)C4)c(N)n3)CC1)C2 (stereo not drawn) [Compound 102] | 57 nM | 11 nM
34 | CNc1ccc2c(n1)CCN2C(=O)c1nc(C)c(N2CCC3(CC2)Cc2ccccc2C3N)nc1N (stereo not drawn) [Compound 103] | 65 nM | 13 nM
35 | Cc1ccc2c(c1)C(N)C1(CCN(c3nc(N)c(C(=O)N4CCc5nc(N)ccc54)nc3C)CC1)C2 (stereo not drawn) [Compound 104] | 58 nM | 10 nM
36 | Cc1nc(C(=O)N2Cc3sc(N)nc3C(C)C2)c(N)nc1N1CCC2(CC1)Cc1ccccc1C2N (stereo not drawn) [Compound 105] | 25 nM | 13 nM
37 | Nc1ccc2c(n1)CCN2C(=O)c1nc(C2CC2)c(N2CCC3(CC2)Cc2ccccc2C3N)nc1N (stereo not drawn) [Compound 106] | 164 nM | 15 nM
38 | Cc1nc(C(=O)N2CCc3nc(N)ccc32)c(N)nc1N1CCC2(CC1)Cc1ccc(F)cc1C2N (stereo not drawn) [Compound 107] | 119 nM | 9 nM
39 | Nc1nc2c(cc1F)N(C(=O)c1ncc(N3CCC4(CC3)Cc3ccccc3C4N)nc1N)CC2 (stereo not drawn) [Compound 109] | 58 nM | 3 nM
40 | Nc1nc2c(s1)CN(C(=O)c1ncc(N3CCC4(CC3)Cc3ccc(C5CC5)cc3C4N)nc1N)CC2 (stereo not drawn) [Compound 110] | 21 nM | 9 nM
41 | Cc1nc(N2CCC3(CC2)Cc2ccccc2C3N)c(CO)nc1C(=O)N1Cc2sc(N)nc2C(F)(F)C1 (stereo not drawn) [Compound 112] | 18 nM | 14 nM
42 | Cc1ccc2c(c1)C(N)C1(CCN(c3ncc(C(=O)N4Cc5sc(N)nc5C(F)(F)C4)nc3CO)CC1)C2 (stereo not drawn) [Compound 113] | < 5 nM | 6 nM
43 | Nc1nc2c(s1)CN(C(=O)c1nc(F)c(N3CCC4(CC3)Cc3ccccc3C4N)nc1N)CC2(F)F (stereo not drawn) [Compound 115] | 4 nM | 4 nM
44 | Nc1nc2c(s1)CN(C(=O)c1ncc(N3CCC4(CC3)Cc3ccc(F)cc3C4N)nc1N)CC2(F)F (stereo not drawn) [Compound 116] | 6 nM | 5 nM
45 | NC(=O)c1nc(C(=O)N2Cc3sc(N)nc3C(F)(F)C2)cnc1N1CCC2(CC1)Cc1ccccc1C2N (stereo not drawn) [Compound 117] | 39 nM | 11 nM
